ChEMBL document CHEMBL1134397, “Synthesis, structure-activity relationships, and pharmacokinetic profiles of nonpeptidic alpha-keto heterocycles as novel inhibitors of human chymase” (J Med Chem, 2001)
Active and inactive are the calls of the source. The rule behind the calls is not given here. Where a SMILES comes first, the peptide text is derived from it. The star is where a group is joined. CF3 = FC(F)(F)*

Experiments:
Chymotrypsinogen A = Chymotrypsinogen A (Bos taurus, UniProt P00766); assay: Inhibitory activity against alpha chymotrypsin from bovine pancreas.
Chymase [1] = target: T1, Chymase (Homo sapiens, UniProt P23946); assay: Inhibitory activity evaluated against chymase from human heart.
T1 sequence (P23946 whole entry): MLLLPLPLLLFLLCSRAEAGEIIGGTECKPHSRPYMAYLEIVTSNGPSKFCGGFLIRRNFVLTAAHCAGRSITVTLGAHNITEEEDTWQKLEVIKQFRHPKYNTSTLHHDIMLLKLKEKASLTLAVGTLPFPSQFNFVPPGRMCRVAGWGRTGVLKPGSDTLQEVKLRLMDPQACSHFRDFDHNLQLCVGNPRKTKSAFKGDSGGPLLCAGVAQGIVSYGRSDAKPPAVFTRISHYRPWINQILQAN

Mast cell protease 9 = target: T2, Mast cell protease 9 (Mus musculus, UniProt O35164); assay: Inhibitory activity against mouse peritoneal chymase
T2 sequence (O35164 whole entry): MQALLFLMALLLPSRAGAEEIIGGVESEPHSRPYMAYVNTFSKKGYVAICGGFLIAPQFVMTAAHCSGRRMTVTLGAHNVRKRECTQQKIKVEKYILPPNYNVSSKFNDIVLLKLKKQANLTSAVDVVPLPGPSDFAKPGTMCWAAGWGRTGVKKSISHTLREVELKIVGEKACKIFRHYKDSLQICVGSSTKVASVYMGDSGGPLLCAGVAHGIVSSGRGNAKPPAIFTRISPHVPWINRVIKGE

Chymase [2] = target: T1, Chymase
[3] = target: Angiotensin-converting enzyme (Homo sapiens) (UniProt P12821); assay: Inhibitory activity against human angiotensin I converting enzyme (10 uM); No inhibition
Chymase [4] = target: T3, Chymase (Rattus norvegicus, UniProt P50339); assay: Inhibitory activity against rat peritoneal chymase
T3 sequence (P50339 whole entry): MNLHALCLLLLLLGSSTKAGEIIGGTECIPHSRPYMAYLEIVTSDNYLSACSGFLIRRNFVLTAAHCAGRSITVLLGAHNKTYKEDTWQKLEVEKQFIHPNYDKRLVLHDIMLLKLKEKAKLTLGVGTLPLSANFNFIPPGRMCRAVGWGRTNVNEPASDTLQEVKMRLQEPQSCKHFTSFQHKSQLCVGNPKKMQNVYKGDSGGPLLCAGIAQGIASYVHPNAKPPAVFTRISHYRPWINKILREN

Cathepsin G = target: T4, Cathepsin G (Homo sapiens, UniProt P08311); assay: Inhibitory activity against human cathepsin G
T4 sequence (P08311 whole entry): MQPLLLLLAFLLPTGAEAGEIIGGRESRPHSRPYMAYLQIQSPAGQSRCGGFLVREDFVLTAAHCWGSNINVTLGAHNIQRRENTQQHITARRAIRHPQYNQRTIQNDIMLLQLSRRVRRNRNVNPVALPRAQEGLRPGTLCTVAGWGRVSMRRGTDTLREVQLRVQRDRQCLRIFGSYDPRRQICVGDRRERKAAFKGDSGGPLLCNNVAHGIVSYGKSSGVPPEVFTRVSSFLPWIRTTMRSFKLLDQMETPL

[5] = target: T5, Neutrophil elastase (Homo sapiens) (UniProt P08246); assay: Inhibitory activity against human leukocyte elastase (10 uM); No inhibition
T5 sequence (whole entry): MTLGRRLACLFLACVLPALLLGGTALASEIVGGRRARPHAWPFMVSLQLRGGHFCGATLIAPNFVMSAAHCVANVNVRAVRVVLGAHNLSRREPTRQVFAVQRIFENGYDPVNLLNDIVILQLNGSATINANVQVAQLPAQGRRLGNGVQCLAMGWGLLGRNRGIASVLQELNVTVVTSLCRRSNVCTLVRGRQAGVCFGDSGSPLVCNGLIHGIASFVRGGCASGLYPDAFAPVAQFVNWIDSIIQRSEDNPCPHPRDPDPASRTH

[6] = target: Prothrombin (Homo sapiens) (UniProt P00734); assay: Inhibitory activity against human plasma thrombin (10 uM); No inhibition; format: cell-free
Chymase [7] = target: T1, Chymase; assay: inhibitory activity was evaluated against chymase from human heart.
[8] = Time to reach Cmax when a dose of 1 mg/kg is administered orally; format: ADME, organism-based; parameters: dose 1 mg/kg, route oral; conditions: rat, in vivo, po
[9] = target: Prothrombin (Homo sapiens) (UniProt P00734); assay: inhibitory activity against human plasma thrombin (10 uM); No inhibition; format: cell-free
[10] = Half life was evaluated when a dose of 1 mg/kg was administered intravenously to rats; format: ADME, organism-based; parameters: dose 1 mg/kg, route intravenous; conditions: rat, in vivo, iv
[11] = Steady state volume distribution was determined; steady state(ss); format: ADME, organism-based; conditions: rat, in vivo
[12] = Pharmacokinetic parameter AUC was determined when a dose of 1 mg/kg was administered orally; format: ADME, organism-based; parameters: dose 1 mg/kg, route oral; conditions: rat, in vivo, po
[13] = Pharmacokinetic parameter plasma clearance was determined at when a dose of 1 mg/kg is administered; format: ADME, organism-based; parameters: dose 1 mg/kg; conditions: rat
[14] = Maximum plasma concentration was measured when a dose of 1 mg/kg is administered orally; format: ADME, organism-based; parameters: dose 1 mg/kg, route oral; conditions: rat, po
[15] = Oral Bioavailability was determined; format: ADME, organism-based; conditions: rat, in vivo, read-out: BA
[16] = Pharmacokinetic parameter AUC was determined when a dose of 1 mg/kg was administered intravenously; format: ADME, organism-based; parameters: dose 1 mg/kg, route intravenous; conditions: rat, in vivo, iv

Angiotensin-converting enzyme (Homo sapiens), sequence (P12821 whole entry): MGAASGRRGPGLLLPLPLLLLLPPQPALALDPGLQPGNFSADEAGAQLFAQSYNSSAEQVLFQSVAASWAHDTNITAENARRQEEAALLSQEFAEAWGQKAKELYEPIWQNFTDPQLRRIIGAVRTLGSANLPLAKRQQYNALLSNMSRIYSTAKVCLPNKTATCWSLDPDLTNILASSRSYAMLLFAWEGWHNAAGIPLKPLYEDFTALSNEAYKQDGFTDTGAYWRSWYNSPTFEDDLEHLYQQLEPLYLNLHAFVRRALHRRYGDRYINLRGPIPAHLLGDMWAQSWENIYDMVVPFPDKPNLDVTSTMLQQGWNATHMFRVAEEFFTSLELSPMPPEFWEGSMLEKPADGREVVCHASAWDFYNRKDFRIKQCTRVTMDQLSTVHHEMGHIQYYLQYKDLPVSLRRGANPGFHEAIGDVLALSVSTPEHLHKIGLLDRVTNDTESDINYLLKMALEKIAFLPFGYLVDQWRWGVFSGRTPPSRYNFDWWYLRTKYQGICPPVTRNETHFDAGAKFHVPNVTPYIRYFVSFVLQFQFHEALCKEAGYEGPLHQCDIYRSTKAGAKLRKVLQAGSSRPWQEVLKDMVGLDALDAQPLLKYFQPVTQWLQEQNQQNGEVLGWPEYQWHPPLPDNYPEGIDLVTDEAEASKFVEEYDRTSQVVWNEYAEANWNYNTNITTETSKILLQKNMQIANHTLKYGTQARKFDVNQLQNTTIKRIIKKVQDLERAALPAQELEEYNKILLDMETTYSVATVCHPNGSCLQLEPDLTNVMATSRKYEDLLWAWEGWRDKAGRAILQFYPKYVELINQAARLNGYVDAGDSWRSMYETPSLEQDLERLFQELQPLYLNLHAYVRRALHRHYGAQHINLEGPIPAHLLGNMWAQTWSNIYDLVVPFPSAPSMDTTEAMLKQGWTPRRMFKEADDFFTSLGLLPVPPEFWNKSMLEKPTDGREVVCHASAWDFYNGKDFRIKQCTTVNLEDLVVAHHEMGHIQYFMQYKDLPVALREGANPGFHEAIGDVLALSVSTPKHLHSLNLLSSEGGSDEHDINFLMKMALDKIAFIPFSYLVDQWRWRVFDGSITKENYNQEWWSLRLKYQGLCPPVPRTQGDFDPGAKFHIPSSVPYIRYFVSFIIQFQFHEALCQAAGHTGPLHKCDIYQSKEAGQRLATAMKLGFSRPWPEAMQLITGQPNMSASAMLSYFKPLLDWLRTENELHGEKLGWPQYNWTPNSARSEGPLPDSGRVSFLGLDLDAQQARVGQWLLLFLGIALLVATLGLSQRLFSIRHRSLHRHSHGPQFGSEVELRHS

Row | Ki (Chymotrypsinogen A) [nM] | Ki (Chymase [1]) [nM] | Compound | other results
1 | 60.5 | 60.6 | Nc1cnc(-c2ccc(F)cc2)n(CC(=O)NC(Cc2ccccc2)C(=O)c2nc3ncccc3o2)c1=O (stereo not drawn) | –
2 | 52.9 | 22.6 | COC(=O)c1ccc2oc(C(=O)C(Cc3ccccc3)NC(=O)Cn3c(-c4ccc(F)cc4)ncc(N)c3=O)nc2c1 (stereo not drawn) | Ki (Mast cell protease 9): 40.4 nM; Ki (Chymase [2]): 3.68 nM; NA [3]: inactive; Ki (Chymase [4]): 103 nM; Ki (Cathepsin G): 720 nM; NA [5]: inactive; NA [6]: inactive
3 | 2230 | 2120 | Nc1cnc(-c2ccc(F)cc2)n(CC(=O)NC(Cc2ccccc2)C(=O)c2nc3cc(O)ccc3o2)c1=O (stereo not drawn) | –
4 | 855 | 5.6 | COC(=O)c1ccc2oc(C(=O)C(Cc3ccccc3)NC(=O)Cn3c(-c4cccc(N)c4)ncc(N)c3=O)nc2c1 (stereo not drawn) | –
5 | 71.3 | – | COC(=O)c1ccc2nc(C(=O)C(Cc3ccccc3)NC(=O)Cn3c(-c4ccc(F)cc4)ncc(N)c3=O)oc2c1 (stereo not drawn) | –
6 | 4400 | 82.1 | CC(C)[C@H](N)C(=O)N1CCC[C@H]1C(=O)N[C@@H](Cc1ccccc1)C(=O)C(F)(F)F (H-Val-Pro-Phe-CF3) | –
7 | – | – | CC(C)C[C@H](NC(=O)[C@@H](NC(=O)N[C@@H](Cc1ccccc1)C(=O)O)C1CCN=C(N)N1)C(=O)N[C@H](C=O)Cc1ccccc1 (stereo partly drawn) [CHYMOSTATIN] | Ki (Chymase [7]): 13.1 nM
8 | 32.6 | 68.6 | CCNC(=O)c1ccc2oc(C(=O)C(Cc3ccccc3)NC(=O)Cn3c(-c4ccc(F)cc4)ncc(N)c3=O)nc2c1 (stereo not drawn) | –
9 | 3820 | 26.1 | COC(=O)c1ccc2oc(C(=O)C(Cc3ccccc3)NC(=O)Cn3c(-c4cccc(Cl)c4)ncc(N)c3=O)nc2c1 (stereo not drawn) | –
10 | – | – | Nc1cnc(-c2ccc(F)cc2)n(CC(=O)NC(Cc2ccccc2)C(=O)c2nc3cc(-c4ccccc4)ccc3o2)c1=O (stereo not drawn) | Ki (Chymase [7]): 174 nM
11 | 65.1 | – | Nc1cnc(-c2ccc(F)cc2)n(CC(=O)NC(Cc2ccccc2)C(=O)c2nc3cc(F)ccc3o2)c1=O (stereo not drawn) | –
12 | 23.3 | 59.5 | CCN(CC)C(=O)c1ccc2oc(C(=O)C(Cc3ccccc3)NC(=O)Cn3c(-c4ccc(F)cc4)ncc(N)c3=O)nc2c1 (stereo not drawn) | –
13 | 467 | 43.5 | COC(=O)c1ccc2oc(C(=O)C(Cc3ccccc3)NC(=O)Cn3c(-c4ccncc4)ncc(N)c3=O)nc2c1 (stereo not drawn) | –
14 | 47.7 | 44.2 | COC(=O)c1ccc2oc(C(=O)C(Cc3ccccc3)NC(=O)Cn3c(-c4cccc(C)c4)ncc(N)c3=O)nc2c1 (stereo not drawn) | –
15 | 133 | – | Nc1cnc(-c2ccc(F)cc2)n(CC(=O)NC(Cc2ccccc2)C(=O)c2nc3cc(C(=O)O)ccc3o2)c1=O (stereo not drawn) | –
16 | 60 | – | Nc1ccc2oc(C(=O)C(Cc3ccccc3)NC(=O)Cn3c(-c4ccc(F)cc4)ncc(N)c3=O)nc2c1 (stereo not drawn) | –
17 | 477 | 30 | CCOC(=O)c1ccc2oc(C(=O)C(Cc3ccccc3)NC(=O)Cn3c(-c4ccc(F)cc4)ncc(N)c3=O)nc2c1 (stereo not drawn) | –
18 | 53.4 | 94 | NC(=O)c1ccc2oc(C(=O)C(Cc3ccccc3)NC(=O)Cn3c(-c4ccc(F)cc4)ncc(N)c3=O)nc2c1 (stereo not drawn) | –
19 | 943 | 4.85 | COC(=O)c1ccc2oc(C(=O)C(Cc3ccccc3)NC(=O)Cn3c(-c4cccc(OC)c4)ncc(N)c3=O)nc2c1 (stereo not drawn) | Tmax [8]: 6 h; Ki (Mast cell protease 9): 63.9 nM; Ki (Chymase [2]): 1.12 nM; NA [9]: inactive; half-life [10]: 35.7 h; Vd [11]: 0.469 L/kg; NA [3]: inactive; AUC [12]: 20800 ng·h/mL; Ki (Chymase [4]): 86.6 nM; clearance [13]: 0.168 mL/min/kg; Cmax [14]: 396 ng/mL; bioavailability [15]: 19.3%; AUC [16]: 108000 ng·h/mL; NA [5]: inactive
20 | 45.1 | – | COC(=O)c1ccc2oc(C(=O)C(Cc3ccccc3)NC(=O)Cn3c(-c4cccnc4)ncc(N)c3=O)nc2c1 (stereo not drawn) | Ki (Chymase [7]): 77.4 nM
21 | 1770 | 14.3 | COC(=O)c1ccc2oc(C(=O)C(Cc3ccccc3)NC(=O)Cn3c(-c4cccc(F)c4)ncc(N)c3=O)nc2c1 (stereo not drawn) | –
22 | 11500 | – | COC(=O)c1ccc2oc(C(=O)C(Cc3ccccc3)NC(=O)Cn3c(-c4cccc([N+](=O)[O-])c4)ncc(N)c3=O)nc2c1 (stereo not drawn) | –
